Like-named read-outs stand apart in the source and are kept apart here.
Legend:
[1] = test system: HN3 ACC primary culture; test: cells; format: cell-based, human
[2] = test system: DOK; test: Growth inhibition assay (SRB); format: cell-based
Procedure: (§1) Cell lines are sub-cultured weekly and routinely screened for mycoplasma contamination.
(§2) The cells are fixed with 100 μl of pre-chilled 10% trichloroacetic acid after removal of the medium. The plates are then chilled at 4° C. for 1 h. Following this, the plates are washed twice with water and stained with 50 μl of 0.4% SRB in 1% acetic acid for 10 min at room temperature. The unbound dye is removed and the plates are washed in 1% acetic acid to further remove unbound dye. […] Growth inhibition curves are plotted and IC50 values determined.

[3] = test system: HN5 ACC primary culture; test: Growth inhibition assay (SRB); format: cell-based, human
[4] = test system: Cal27; test: Growth inhibition assay (SRB); format: cell-based, human
Procedure: as §1, §2

[5] = test system: FaDu; test: Growth inhibition assay (SRB); format: cell-based, human
Procedure: as §1, §2

[6] = test system: HN1 ACC primary culture; test: cells; format: cell-based, human

| SMILES | IC50 ([1]; read-out: IC50) [nM] | IC50 ([2]; DOK, 5-7 days, read-out: IC50) | IC50 ([6]; read-out: IC50) [nM] | IC50 ([6]; Homo sapiens) | further results |
| --- | --- | --- | --- | --- | --- |
| COc1cccc2c1C(=O)c1c(O)c3c(c(O)c1C2=O)C[C@@](O)(C(=O)CO)C[C@@H]3O[C@H]1C[C@H](N)[C@H](O)[C@H](C)O1 [Adr] | 60 | 20 nM | – | – | – |
| COc1ccc(/C=C\c2cc(OC)c(OC)c(OC)c2)cc1O [Ca4, combrestatin] | – | – | > 20 | – | IC50 ([3]; read-out: IC50): 3.06 nM; IC50 [4]: 1.46 nM; IC50 [5]: 3.69 nM; IC50 ([2]; read-out: IC50): 3.32 nM |
| N.N.[Cl][Pt][Cl] [Cisp, cisplatin] | 2800 | 3700 nM | 5000 | – | – |
| O=c1[nH]cc(F)c(=O)[nH]1 [Compound 5FU, 5 fluorouracil] | – | 22000 nM | – | 4800 nM | – |
| Nc1ccn([C@@H]2O[C@H](CO)[C@@H](O)C2(F)F)c(=O)n1 [Gem, gemcitabine] | – | 7.06 nM | – | 1.95 nM | – |
| CO[C@@]12[C@H](COC(N)=O)C3=C(C(=O)C(C)=C(N)C3=O)N1C[C@@H]1N[C@@H]12 [MMC, mitomycin C] | 1160 | 60 nM | 1750 | – | – |
| N[C@@H](Cc1ccc(N(CCCl)CCCl)cc1)C(=O)O [Mel, melphalan] | – | 111000 nM | – | 66600 nM | IC50 ([3]; Homo sapiens): 7300 nM; IC50 ([1]; Homo sapiens): 27500 nM |
| CC1=C(N2CC2)C(=O)C(CO)=C(N2CC2)C1=O [RH1] | 0.86 | – | 7.11 | – | IC50 ([3]; read-out: IC50): 0.87 nM; IC50 [4]: 0.11 nM; IC50 [5]: 1.34 nM; IC50 ([2]; read-out: IC50): 0.33 nM |
| CC(=O)O[C@H]1C(=O)[C@@]2(C)[C@H]([C@H](OC(=O)c3ccccc3)[C@]3(O)C[C@H](OC(=O)[C@H](O)[C@@H](NC(=O)c4ccccc4)c4ccccc4)C(C)=C1C3(C)C)[C@]1(OC(C)=O)CO[C@@H]1C[C@@H]2O [Taxol, 5(beta),20-Epoxy-1,2(alpha),4,7(beta), 10(beta), b 13(alpha)-hexahydroxytax-11-en-9-one4,10-diacetate 2-benzoate 13-ester with (2R ,3S )-N-benzoyl-3-phenylisoserine] | – | 2.7 ng/mL | – | 6.1 ng/mL | IC50 ([1]; Homo sapiens): 6.1 ng/mL |
| CC[C@]1(O)C[C@@H]2CN(CCc3c([nH]c4ccccc34)[C@@](C(=O)OC)(c3cc4c(cc3OC)N(C)[C@H]3[C@@](O)(C(=O)OC)[C@H](OC(C)=O)[C@]5(CC)C=CCN6CC[C@]43[C@@H]65)C2)C1 [VBL, vinblastin] | – | – | – | – | IC50 [1]: 0.9 ng/mL; IC50 ([2]; DOK, 5-7 days): 0.3 ng/mL; IC50 [6]: 1.3 ng/mL |
